Our source for the IC50 values is patent publication US9255090B2, “Heterocyclyl derivatives and their use as prostaglandin D2 receptor modulators” (Actelion Pharmaceuticals Ltd., priority 2012, dated 2016).

As usually defined, the IC50 is the point on the concentration scale where inhibition reaches its midpoint. A low value points to higher potency.

This assay concerns the target hCRTH2 receptor (Homo sapiens (Human), UniProt Q9Y5Y4). The assay is described as follows: hCRTH2 receptor membranes radioligand (3H-PGD2) displacement assay. The settings on record: 3H-PGD2 radioligand displacement, HEK293-hCRTH2 membranes. The class given is binding. The protocol:
Biological Assays: Preparation of hCRTH2 Receptor Membranes and Radioligand Displacement Assay:
First, recombinant HEK293-hCRTH2 cells were detached from culture plates into 5 ml buffer A/plate (Buffer A: 5 mM Tris, 1 mM MgCl2-6H2O pH=7.4) using a rubber policeman. Cells were then transferred into centrifugation tubes and centrifuged for 5 min at 400 g. The cell pellet was resuspended in the same buffer and tubes were frozen at −80° C. Cells were thawed and membrane fragments were generated by homogenization using a polytron homogenizer (30 seconds). The membrane fragments were then centrifuged at 3000 g for 20 minutes and resuspended in buffer C (Buffer C: 75 mM Tris, 25 mM MgCl2, 250 mM Saccharose pH 7.4). Aliquots of membrane fragments were stored at −20° C.
Binding assay was performed in a final assay volume of 250 μl. First, 25 μl of test compound, previously diluted in Binding-Buffer (Binding-Buffer: 50 mM Tris-Base, 100 mM NaCl, 1 mM EDTA, 0.1% BSA (protease free), 0.01% NaN3, 10 mM MnCl2, pH 7.0) was placed into each well. After addition of 75 μl Binding-Buffer, 50 μl of the radioligand ^3H-PGD2 (at 2.5 nM (220.000 dpm/well) from ANAWA ART0662) was added to each well. Binding assay was started by addition of 100 μl CRTH2 membrane fragments, reaching a final concentration of 20 μg/well. For non-specific binding, PGD2 was added to the reaction mixture to […] final concentration. This assay mix was incubated for 90 minutes at room temperature and then filtered through a GF/C filter 96-well plate which was pre-soaked for 3 hours in 0.5% polyethyleneimine (PEI). The filter-wells were washed three times with ice cold Binding-Buffer. Then, 40 μl of Microscint-40 (Packard) was added to each well and the retained radioactivity quantified in a Topcount (Packard).
In general terms: Loss of bound radioactivity is the signal in a displacement assay; it reports binding, not function.

Chain of hCRTH2 receptor (Q9Y5Y4 whole entry): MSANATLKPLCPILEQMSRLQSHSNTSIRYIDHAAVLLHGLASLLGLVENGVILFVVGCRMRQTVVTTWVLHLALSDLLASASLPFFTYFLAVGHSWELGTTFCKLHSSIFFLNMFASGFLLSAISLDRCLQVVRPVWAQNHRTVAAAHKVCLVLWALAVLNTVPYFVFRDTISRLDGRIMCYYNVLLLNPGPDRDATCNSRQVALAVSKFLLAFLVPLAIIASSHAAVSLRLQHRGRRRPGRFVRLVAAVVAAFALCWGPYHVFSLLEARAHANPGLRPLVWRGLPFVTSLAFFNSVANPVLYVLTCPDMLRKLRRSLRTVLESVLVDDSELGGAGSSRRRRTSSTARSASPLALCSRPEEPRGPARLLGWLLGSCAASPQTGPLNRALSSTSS

Take `CCOc1ccc(CC(=O)O)cc1-c1ccc(F)c2c1CN(C(=O)NCc1cccc(F)c1)CC2` [Example 433, {4-Ethoxy-3-[5-fluoro-2-(3-fluoro-benzylcarbamoyl)-1,2,3,4-tetrahydro-isoquinolin-8-yl]-phenyl}-acetic acid]: the IC50 was determined as 59.3 nM. The figure for `O=C(O)Cc1ccccc1-c1ccc(F)c2c1CN(C(=O)OCc1ccccc1)CC2` [Example 30, 8-(2-Carboxymethyl-phenyl)-5-fluoro-3,4-dihydro-1H-isoquinoline-2-carboxylic acid benzyl ester] is 875 nM; for `CCOc1cc(CC(=O)O)ccc1-c1ccc(F)c2c1CN(C(=O)/C=C/c1cnn(C)c1)CC2` [Example 339, (3-Ethoxy-4-{5-fluoro-2-[(E)-3-(1-methyl-1H-pyrazol-4-yl)-acryloyl]-1,2,3,4-tetrahydro-isoquinolin-8-yl}-phenyl)-acetic acid] it is 12.7 nM.

With `O=C(O)Cc1ccc(OCC(F)(F)F)c(-c2ccc(F)c3c2CN(C(=O)CC2COc4ccccc42)CC3)c1` (racemic) [Example 307], the IC50 came to 3.4 nM. As for `COc1ccc(CC(=O)O)cc1-c1ccc(F)c2c1CN(C(=O)CCN1CCCc3ccccc31)CC2` [Example 53, {3-[2-(3-3,4-Dihydro-2H-quinolin-1-yl-propionyl)-5-fluoro-1,2,3,4-tetrahydro-isoquinolin-8-yl]-4-methoxy-phenyl}-acetic acid], the IC50 was 4.49 nM.

Take `COc1cc(CC(=O)O)cc(OC)c1-c1ccc(F)c2c1CN(C(=O)OCc1ccccc1)CC2` [Example 218, 8-(4-Carboxymethyl-2,6-dimethoxy-phenyl)-5-fluoro-3,4-dihydro-1H-isoquinoline-2-carboxylic acid benzyl ester]: the IC50 amounted to 1.7 nM. The figure for `CCOc1cc(CC(=O)O)ccc1-c1ccc(F)c2c1CN(C(=O)OCC1CC1)CC2` [Example 391, 8-(4-Carboxymethyl-2-ethoxy-phenyl)-5-fluoro-3,4-dihydro-1H-isoquinoline-2-carboxylic acid cyclopropylmethyl ester] is 1.6 nM. For `COc1ccc(CC(=O)O)cc1-c1ccc(F)c2c1CN(C(=O)CC(C)(C)C)CC2` [Example 129, {3-[2-(3,3-Dimethyl-butyryl)-5-fluoro-1,2,3,4-tetrahydro-isoquinolin-8-yl]-4-methoxy-phenyl}-acetic acid] the value was 913 nM. The figure for `C[C@H](CC(=O)N1CCc2c(F)ccc(-c3ccc(CC(=O)O)cc3OCC(F)(F)F)c2C1)c1ccccc1` [Example 347, [4-[5-Fluoro-2-((R)-3-phenyl-butyryl)-1,2,3,4-tetrahydro-isoquinolin-8-yl]-3-(2,2,2-trifluoro-ethoxy)-phenyl]-acetic acid] is 1.5 nM; for `CCOc1ccc(CC(=O)O)cc1-c1ccc(F)c2c1CN(C(=O)CC1CCc3ccccc31)CC2` (racemic) [Example 219] it is 9.1 nM; for `CCOc1cc(CC(=O)O)ccc1-c1ccc(F)c2c1CN(C(=O)OCc1cnccn1)CC2` [Example 386, 8-(4-Carboxymethyl-2-ethoxy-phenyl)-5-fluoro-3,4-dihydro-1H-isoquinoline-2-carboxylic acid pyrazin-2-ylmethyl ester] it is 3.4 nM. `CCOc1ccc(CC(=O)O)cc1-c1ccc(F)c2c1CN(C(=O)/C=C/c1ccn(C)n1)CC2` [Example 337, (4-Ethoxy-3-{5-fluoro-2-[(E)-3-(1-methyl-1H-pyrazol-3-yl)-acryloyl]-1,2,3,4-tetrahydro-isoquinolin-8-yl}-phenyl)-acetic acid] returned an IC50 of 30.4 nM. For `CCOc1ccc(CC(=O)O)cc1-c1ccc(F)c2c1CN(C(=O)NCc1ccccc1OC)CC2` [Example 437, {4-Ethoxy-3-[5-fluoro-2-(2-methoxy-benzylcarbamoyl)-1,2,3,4-tetrahydro-isoquinolin-8-yl]-phenyl}-acetic acid] the value was 10.9 nM; for `Cc1cccc(CCC(=O)N2CCc3c(F)ccc(-c4cc(CC(=O)O)ccc4OC(C)C)c3C2)n1` [Example 295, (3-{5-Fluoro-2-[3-(6-methyl-pyridin-2-yl)-propionyl]-1,2,3,4-tetrahydro-isoquinolin-8-yl}-4-isopropoxy-phenyl)-acetic acid], 1.7 nM.

In the case of `COc1ccc(CC(=O)O)cc1-c1ccc(F)c2c1CN(C(=O)CC1COc3ccccc3C1)CC2` (racemic) [Example 242], the IC50 worked out at 2.7 nM. The figure for `COc1ccc(CC(=O)O)cc1-c1ccc(F)c2c1CN(C(=O)/C=C/c1nc3ccccc3s1)CC2` [Example 88, {3-[2-((E)-3-Benzothiazol-2-yl-acryloyl)-5-fluoro-1,2,3,4-tetrahydro-isoquinolin-8-yl]-4-methoxy-phenyl}-acetic acid] is 9.14 nM; for `COc1ccc(CC(=O)O)cc1-c1ccc(F)c2c1CN(C(=O)CC(C)C1CC1)CC2` (racemic) [Example 245] it is 399 nM. For `COc1cc(CC(=O)O)ccc1-c1ccc(F)c2c1CN(C(=O)CCN1CCc3ccccc31)CC2` [Example 191, {4-[2-(3-2,3-Dihydro-indol-1-yl-propionyl)-5-fluoro-1,2,3,4-tetrahydro-isoquinolin-8-yl]-3-methoxy-phenyl}-acetic acid] the value was 2.42 nM; for `CCCc1ccc(CC(=O)O)cc1-c1ccc(F)c2c1CN(C(=O)OCc1ccccc1)CC2` [Example 215, 8-(5-Carboxymethyl-2-propyl-phenyl)-5-fluoro-3,4-dihydro-1H-isoquinoline-2-carboxylic acid benzyl ester], 3.6 nM. The figure for `CCOc1cc(CC(=O)O)ccc1-c1ccc(F)c2c1CN(C(=O)OCc1ncc(C)cc1F)CC2` [Example 387, 8-(4-Carboxymethyl-2-ethoxy-phenyl)-5-fluoro-3,4-dihydro-1H-isoquinoline-2-carboxylic acid 3-fluoro-5-methyl-pyridin-2-ylmethyl ester] is 8 nM; for `O=C(O)Cc1ccc(OC(F)(F)F)c(-c2ccc(F)c3c2CN(C(=O)[C@@H]2C[C@H]2c2ccccc2)CC3)c1` [Example 26, {3-[5-Fluoro-2-((1R,2R)-2-phenyl-cyclopropanecarbonyl)-1,2,3,4-tetrahydro-isoquinolin-8-yl]-4-trifluoromethoxy-phenyl}-acetic acid] it is 3.07 nM; for `COc1ccc(CC(=O)O)cc1-c1ccc(F)c2c1CN(C(=O)/C=C/c1cc(C)nn1C)CC2` [Example 90, (3-{2-[(E)-3-(2,5-Dimethyl-2H-pyrazol-3-yl)-acryloyl]-5-fluoro-1,2,3,4-tetrahydro-isoquinolin-8-yl}-4-methoxy-phenyl)-acetic acid] it is 49.1 nM. `COc1ccc(CC(=O)O)cc1-c1ccc(F)c2c1CN(C(=O)CCc1cccc(C)n1)CC2` [Example 92, (3-{5-Fluoro-2-[3-(6-methyl-pyridin-2-yl)-propionyl]-1,2,3,4-tetrahydro-isoquinolin-8-yl}-4-methoxy-phenyl)-acetic acid]: the IC50 is 15.7 nM. The figure for `CCOc1cc(CC(=O)O)ccc1-c1ccc(F)c2c1CN(C(=O)NCc1ccccc1Cl)CC2` [Example 444, {4-[2-(2-Chloro-benzylcarbamoyl)-5-fluoro-1,2,3,4-tetrahydro-isoquinolin-8-yl]-3-ethoxy-phenyl}-acetic acid] is 2 nM.

Consider `O=C(O)Cc1ccc(-c2ccc(F)c3c2CN(C(=O)OCc2ccccc2)CC3)cc1Cl` [Example 40, 8-(4-Carboxymethyl-3-chloro-phenyl)-5-fluoro-3,4-dihydro-1H-isoquinoline-2-carboxylic acid benzyl ester], for which the IC50 is 29.1 nM. As for `COc1ccc(CC(=O)O)cc1-c1ccc(F)c2c1CN(C(=O)CCc1cccnc1)CC2` [Example 51, {3-[5-Fluoro-2-(3-pyridin-3-yl-propionyl)-1,2,3,4-tetrahydro-isoquinolin-8-yl]-4-methoxy-phenyl}-acetic acid], the half-maximal inhibitory concentration (IC50) was 57.1 nM. The figure for `CC(CC(=O)N1CCc2c(F)ccc(-c3ccc(CC(=O)O)cc3OCC(F)(F)F)c2C1)c1ccccn1` (racemic) [Example 288] is 10 nM; for `COc1ccc(CC(=O)O)cc1-c1ccc(F)c2c1CN(C(=O)NCc1ccccc1F)CC2` [Example 130, {3-[5-Fluoro-2-(2-fluoro-benzylcarbamoyl)-1,2,3,4-tetrahydro-isoquinolin-8-yl]-4-methoxy-phenyl}-acetic acid] it is 17.7 nM; for `CCOc1ccc(CC(=O)O)cc1-c1ccc(F)c2c1CN(C(=O)CC1(c3ccccc3F)CC1)CC2` [Example 276, [4-Ethoxy-3-(5-fluoro-2-{2-[1-(2-fluoro-phenyl)-cyclopropyl]-acetyl}-1,2,3,4-tetrahydro-isoquinolin-8-yl)-phenyl]-acetic acid] it is 35.9 nM. The figure for `COc1ccc(CC(=O)O)cc1-c1ccc(F)c2c1CN(C(=O)C1CC1)CC2` [Example 52, [3-(2-Cyclopropanecarbonyl-5-fluoro-1,2,3,4-tetrahydro-isoquinolin-8-yl)-4-methoxy-phenyl]-acetic acid] is 68.9 nM.
